SMILES strings stand for the structures. In brackets after ≈: the same amount, converted by molar mass. Where two headings read alike, the source gives them in different places. Some results are limits rather than exact numbers.

This data set can be described thus: Thermodynamic solubility. The data set is classed as physicochemical. Particulars: thermodynamic from solid, 37° C. The source says: 4.2. Thermodynamic Solubility
Poor solubility, in particular poor thermodynamic solubility can limit the absorption of compounds from the gastrointestinal tract which in turn may reduce oral bioavailability.
Thermodynamic solubility investigates the solubility of a compound as a saturated solution in equilibrium, by opposition to kinetic solubility, which measures the solubility of a metastable solution where supersaturation may occur and provide over estimation of the actual solubility of the compound. (Klein 2010)
4.2.1. Thermodynamic Solubility—Protocol 1
In a 8 mL glass vial, 1-2 mg of dry matter of compound are added and stirred with the suitable buffers (Fed State Simulated Intestine Fluid, FeSSIF, or Fasted State Simulated Intestine Fluid, FaSSIF, or Fasted State Simulated Gastric Fluid, FaSSGF, or phosphate buffer pH 7.4) for 24 h at r.t. (for the buffer pH 7.4) or 37° C. (for the GI fluids). The concentration of the mixture is 1 mg/mL.
A volume of 500 μL are sampled, centrifuged for 10 min at 10 000 rpm and filtered. The samples are diluted in duplicates in DMSO (F100 and F10). Then, a final dilution (F100) in 80/20 H2O/MeCN containing the internal standard (warfarin) is used for LCMS-MS analysis.
A standard curve is made starting from a 200,000 ng/mL stock in DMSO, freshly prepared from dry matter. Then, successive concentrations at […], 1,000, 200 and 75 ng/mL in DMSO are prepared by using the Tecan robot.
Two quality control samples are made: one of 10,000 ng/mL and one of 500 ng/mL in DMSO, also starting from the DMSO working stock solution at 200,000 ng/mL.
The standard curve and quality controls are diluted a F100 in 80/20 H2O/MeCN (with internal standard) and analyzed on LC/MS-MS (API4000 or API5500).
The samples are analyzed on LC-MS with a flow rate of 0.6 mL/min. The mobile phase A is 0.1% formic acid in water and the mobile phase B is 0.1% formic acid in MeCN. The sample is run under positive or negative ion spray on Pursuit C18-5 μm (2.0×20 mm) column, from Agilent.
The peak areas of the standard curve are plotted in a graph and a linear or polynomial of the second order equation is used to calculate the unknown concentrations of the test compound.
4.2.2. Thermodynamic Solubility—Protocol 2
In an 8 mL glass vial, 1-2 mg of dry matter of compound were added and stirred with the suitable buffers (Fed State Simulated Intestine Fluid, FeSSIF, or Fasted State Simulated Intestine Fluid, FaSSIF, or Fasted State Simulated Gastric Fluid, FaSSGF, or phosphate buffer pH 7.4) for 24 h at r.t. (for the buffer pH 7.4) or 37° C. (for the GI fluids). The concentration of the mixture was 1 mg/mL.
A volume of 1000 μL were sampled, centrifuged for 10 min at 10 000 rpm and 500 μL of the supernatant were filtered on captiva plate. The samples were diluted in duplicates in DMSO (F100 and F10). Then, a final dilution (F100) in 80/20 H2O/MeCN containing the internal standard (warfarin) was used for LCMS-MS analysis.
A standard curve was made starting from a 40,000 ng/mL stock in DMSO, freshly prepared from dry matter. Then, successive concentrations at 15,000, 11,000, 6,000, 2,500, 1,000, 375, 150 and 75 ng/mL in DMSO were prepared.
Three quality control samples were made: one of 10,000, 1,500 and 200 ng/mL in DMSO, also starting from the DMSO working stock solution at 40,000 ng/mL.
The standard curve and quality controls were diluted a F100 in 80/20 H2O/MeCN (with internal standard) and analyzed on LC/MS-MS (API4000 or API5500).
The samples were analyzed on LC-MS with a flow rate of 0.6 mL/min. The mobile phase A was 0.1% formic acid in water and the mobile phase B was 0.1% formic acid in 90% acetonitrile and 10% of water. The sample was run under positive or negative ion spray on Pursuit C18-5 μm (2.0×20 mm) column, from Agilent. […]

For `COc1c(NC(=O)c2cccn(C3CC3)c2=O)cn2cc(CCC(C)(C)O)nc2c1F` [Compound 42, 1-cyclopropyl-N-[8-fluoro-2-(3-hydroxy-3-methyl-butyl)-7-methoxy-imidazo[1,2-a]pyridin-6-yl]-2-oxo-pyridine-3-carboxamide], the solubility thermodynamic at 24 h was above 1000 µg/mL (Fasted State Simulated Gastric Fluid (FaSSGF), fassgf or other biorelevant, Fasted State Simulated Gastric Fluid, read-out: Tsol FaSSGF); 181 µg/mL (≈ 422 µM) (Fasted State Simulated Intestine Fluid (FaSSIF), fassif, Fasted State Simulated Intestine Fluid, read-out: Tsol FaSSIF); 612 µg/mL (≈ 1430 µM) (Fed State Simulated Intestine Fluid (FeSSIF), fessif, Fed State Simulated Intestine Fluid, read-out: Tsol FeSSIF).

Values taken from patent US20220194938A1, “NOVEL COMPOUNDS AND PHARMACEUTICAL COMPOSITIONS THEREOF FOR THE TREATMENT OF INFLAMMATORY DISORDERS” (GALAPAGOS NV, priority 2019, published 2022).
